Measured values from patent publication US8338426B2, “Piperazinyl derivatives useful as modulators of the neuropeptide Y2 receptor” (Janssen Pharmaceutica NV, priority 2007, dated 2012).
Residue numbers refer to the chain shown, from its start.

Key:
human Y2 receptor = target: T1, human Y2 receptor (Homo sapiens, UniProt P49146); assay: Neuropeptide Y2 radioligand binding assay, [125I]PYY, KAN-Ts cells; conditions: KANT-S cells, mean ± S.E.M., read-out: hY2 pKi (converted)
T1 construct: KAN-Ts endogenously expressing Y2 receptors were used; endogenous in cells; host or cells: KAN-Ts cells
T1 sequence (P49146 1-381): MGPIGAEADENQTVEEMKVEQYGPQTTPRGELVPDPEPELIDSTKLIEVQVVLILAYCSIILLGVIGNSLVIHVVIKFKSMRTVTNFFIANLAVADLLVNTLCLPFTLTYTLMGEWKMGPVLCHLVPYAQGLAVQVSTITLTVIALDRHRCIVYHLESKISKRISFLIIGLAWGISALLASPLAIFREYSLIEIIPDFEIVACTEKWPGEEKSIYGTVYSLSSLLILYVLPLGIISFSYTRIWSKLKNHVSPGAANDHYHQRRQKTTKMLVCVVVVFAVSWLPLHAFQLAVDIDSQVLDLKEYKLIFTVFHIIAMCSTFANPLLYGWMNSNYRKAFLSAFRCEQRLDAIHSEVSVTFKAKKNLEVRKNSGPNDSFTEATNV
Protocol: (§1) Radioligand binding assays for the human and rat/mouse Y2 receptor were performed as described in Bonaventure, P., D. Nepomuceno, C. Mazur, B. Lord, D. A. Rudolph, J. A. Jablonowski, N. I. Carruthers and T. W. Lovenberg, J Pharmacol Exp Ther. 2004, 308, 1130.
(§2) KAN-Ts endogenously expressing Y2 receptors were used, for the rat and mouse Y2 receptor, membranes from rat or mouse hippocampus were prepared. Membranes were incubated with [^125I]PYY (80 pM) in the presence or absence of test compound for 1 h at rt. The reaction was stopped by filtration through GF/C filter plates pre-soaked in 0.3% polyethylenimine and subsequently washed with Tris-HCl, 50 mM, 5 mM EDTA buffer. Plates were dried for 1 h in a 55° C. oven, scintillation fluid was added and the radioactivity was counted in a Packard TopCount. Specific binding to the NPY receptor subtypes was determined by radioactivity that was bound in the presence of 1 μM NPY.
(§3) Apparent Ki values were calculated as K=IC50/(1+C/KD), where C is concentration of the radioligand and pKi=−log Ki. Data presented below are expressed as mean±S.E.M.

hY2 = target: T2, hY2 (Homo sapiens, UniProt P49146); assay: Ca2+ mobilization assay (FLIPR) in KAN-Ts cells; format: cell-based; conditions: KANT-S cells, inhibition of PYY stimulated Ca2+ increase, read-out: hY2 pKB (converted)
T2 construct: KAN-Ts endogenously expressing Y2 receptors were used; endogenous in cells; host or cells: KAN-Ts cells stably expressing chimeric G proteins
T2 sequence (P49146 1-381): T1 sequence (P49146 1-381)
Protocol: The assay was performed using the fluorimetric imaging plate reader (FLIPR) format as described in Dautzenberg, F. M., Biochemical Pharmacology 2005, 69, 1493.
KAN-Ts cells stably expressing chimeric G proteins were seeded at a density of 100,000 cells into poly-d-lysine coated 384-well blackwall, clear-bottom microtiter plates (Corning, N.Y.). One day later, the medium was removed and 50 μl loading medium DMEM high glucose, without serum, supplemented with 10 mM HEPES-acid, 0.1% BSA, 5 mM probenecid and 2 μM Fluo-3AM was added. Cells were loaded for 1 h at 37° C., washed twice with 50 μl assay buffer (5 mM HEPES-acid, 140 mM NaCl, 1 mM MgCl2, 5 mM KCl, 10 mM glucose) and then 30 μl assay buffer was added. Cells were further pre-incubated at room temperature before adding agonists or agonists plus antagonists in 20 μl assay buffer and then measured on a T-channel fluorometric imaging plate reader (FLIPR, Molecular Devices, Sunnyvale, Calif.).
Antagonistic potency values were converted to apparent pKB values using a modified Cheng-Prusoff correction. Apparent pKB=−log IC50/1+[conc agonist/EC50]. Data below are expressed as mean±S.E.M.
The in vitro antagonistic properties of the compound of formula (A) were confirmed using Ca^2+ measurement.

[1] = target: T3, Y2 receptor binding sites in rat hippocampus (Rattus norvegicus, UniProt Q9ERC0); assay: Ex vivo Y2 receptor occupancy in rats (autoradiography); conditions: SC administration (10 mg/kg)
T3 construct: from tissue; host or cells: rat brain sections (hippocampus) after in vivo dosing
T3 sequence (Q9ERC0 1-381): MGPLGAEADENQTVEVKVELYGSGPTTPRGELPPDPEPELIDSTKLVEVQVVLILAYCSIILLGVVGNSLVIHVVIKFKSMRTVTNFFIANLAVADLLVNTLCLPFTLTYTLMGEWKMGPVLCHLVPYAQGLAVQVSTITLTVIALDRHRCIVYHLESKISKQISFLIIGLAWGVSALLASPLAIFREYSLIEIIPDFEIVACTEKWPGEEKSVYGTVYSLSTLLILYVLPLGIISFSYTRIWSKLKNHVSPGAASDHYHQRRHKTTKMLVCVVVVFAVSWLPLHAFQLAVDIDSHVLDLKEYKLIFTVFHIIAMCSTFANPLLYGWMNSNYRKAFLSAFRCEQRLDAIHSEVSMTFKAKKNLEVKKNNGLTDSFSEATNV
Protocol: The pharmacokinetic, blood-brain barrier penetration and ex vivo receptor occupancy studies were performed as described in Bonaventure, P., D. Nepomuceno, C. Mazur, B. Lord, D. A. Rudolph, J. A. Jablonowski, N. I. Carruthers and T. W. Lovenberg, J Pharmacol Exp Ther. 2004, 308, 1130.
The compound of formula (A) was formulated in 20% hydroxypropylbetacyclodextrine. Subcutaneous (SC), oral (PO) or intravenous (IV) dosing was followed by blood sampling via cardiac puncture over a time course. Blood samples consisted of 250 μl samples taken from the heart using a 23-gauge needle into 1.5 ml micro-centrifuge tubes. Brains were removed from the animals and bisected down the midsagittal plane. One hemisphere was frozen on dry ice for ex vivo receptor binding autoradiography and the other was homogenized for LC/MS-MS analysis.
Ex vivo receptor binding autoradiography was performed on brain sections. Twenty-micron-thick coronal sections at the level of the […] regions were collected and incubated for 10 min with 100 pM [^125I]PYY in Krebs-Ringer phosphate buffer (KRP) at pH 7.4 supplemented with 0.1% BSA, 0.05% bacitracin, and 1 μM BIBP-3226 for Y1 receptor occlusion. The sections were not washed prior to incubation and were incubated 10 minutes to avoid dissociation. Nonspecific binding was determined using adjacent sections incubated in the presence of 1 μM unlabelled hNPY. At the end of the incubation, sections were washed 4 times (4 minutes each) in ice cold buffer, dipped in deionized water and rapidly dried under a stream of cold air. Sections were exposed to a Fujifilm Imaging Plate (BAS-MS2025) for 12 hours. The Phosphor Imaging Plate was scanned using a Fuji Bio-Imaging Analyzer System (BAS-5000). The digitized computer images generated by the scanner were visualized and quantified using ImageGauge V3.12 software (Fujifilm).

MTP = MTP (Homo sapiens, UniProt P55157); assay: MTP assay (triglyceride transfer between vesicles); format: biochemical; conditions: read-out: MTP pIC50 (converted)
Chain of MTP (P55157 19-894, species assumed): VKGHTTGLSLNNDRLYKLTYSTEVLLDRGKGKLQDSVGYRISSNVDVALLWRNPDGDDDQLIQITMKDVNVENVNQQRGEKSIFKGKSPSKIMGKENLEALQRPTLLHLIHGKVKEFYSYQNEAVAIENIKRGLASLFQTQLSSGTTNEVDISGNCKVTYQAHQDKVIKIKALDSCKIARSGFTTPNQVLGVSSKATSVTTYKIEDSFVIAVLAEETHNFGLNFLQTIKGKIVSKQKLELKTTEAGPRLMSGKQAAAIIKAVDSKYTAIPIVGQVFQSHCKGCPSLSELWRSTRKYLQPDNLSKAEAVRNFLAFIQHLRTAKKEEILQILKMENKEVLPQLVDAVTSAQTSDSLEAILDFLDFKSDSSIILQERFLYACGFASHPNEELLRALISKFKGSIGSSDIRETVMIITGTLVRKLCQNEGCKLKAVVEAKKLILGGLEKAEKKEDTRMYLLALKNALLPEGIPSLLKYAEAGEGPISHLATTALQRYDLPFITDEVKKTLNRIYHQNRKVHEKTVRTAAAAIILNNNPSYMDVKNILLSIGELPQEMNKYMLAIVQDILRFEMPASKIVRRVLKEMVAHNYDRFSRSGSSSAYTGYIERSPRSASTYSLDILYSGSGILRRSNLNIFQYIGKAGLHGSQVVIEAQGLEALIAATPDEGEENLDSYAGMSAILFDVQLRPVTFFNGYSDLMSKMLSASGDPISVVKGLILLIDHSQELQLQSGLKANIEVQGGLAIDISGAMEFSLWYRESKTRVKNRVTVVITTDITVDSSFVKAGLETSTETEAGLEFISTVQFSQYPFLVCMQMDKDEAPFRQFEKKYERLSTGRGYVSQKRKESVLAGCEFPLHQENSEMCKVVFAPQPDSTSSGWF
Chain of MTP (P07237 18-508 partner, species assumed): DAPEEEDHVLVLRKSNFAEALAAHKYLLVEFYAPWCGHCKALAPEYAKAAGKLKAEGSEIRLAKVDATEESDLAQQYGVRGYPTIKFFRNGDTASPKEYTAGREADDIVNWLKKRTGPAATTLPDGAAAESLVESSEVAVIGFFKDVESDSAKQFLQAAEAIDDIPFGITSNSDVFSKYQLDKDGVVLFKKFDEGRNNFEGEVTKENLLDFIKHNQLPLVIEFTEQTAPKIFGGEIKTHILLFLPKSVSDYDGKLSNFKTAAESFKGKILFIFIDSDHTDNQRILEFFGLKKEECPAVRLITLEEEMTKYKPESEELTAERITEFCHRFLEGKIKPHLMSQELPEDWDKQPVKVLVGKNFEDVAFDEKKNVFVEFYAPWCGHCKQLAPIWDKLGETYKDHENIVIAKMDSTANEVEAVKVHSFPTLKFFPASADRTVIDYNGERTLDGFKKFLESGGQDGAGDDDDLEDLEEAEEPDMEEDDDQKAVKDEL
Protocol: MTP activity was measured using an assay similar to one described by J. R. Wetterau and D. B. Zilversmit in Chemistry and Physics of Lipids (1985) 38, 205-222.
In order to prepare the donor and acceptor vesicles, the appropriate lipids in chloroform were put into a glass test tube and dried under a stream of nitrogen. A buffer containing 15 mM Tris-HCl (pH 7.5), 1 mM ethylenediamine tetra-acetic acid, 40 mM NaCl, 0.02% NaN3 (assay buffer) was added to the dried lipid. The mixture was vortexed briefly and the lipids were then allowed to hydrate for 20 minutes on ice. Vesicles were then prepared by bath sonication (using a Branson 2200 device) at room temperature for at most 15 minutes. Butylated hydroxytoluene was included in all vesicle preparations at a concentration of 0.1%. The lipid transfer assay mixture contained donor vesicles (40 nmole phosphatidylcholine, 7.5 mole % cardiolipin and 0.25 mole % glycerol tri[1-^14C]-oleate), acceptor vesicles (240 nmol phosphatidylcholine) and 5 mg bovine serum albumin in a total volume of 675 μl in a 1.5 ml microcentrifuge tube. Test compound was added dissolved in dimethylsulfoxide (0.13% final concentration). After 5 minutes of pre-incubation at 37° C., the reaction was started by the addition of MTP in 100 μl of a dialysis buffer. The reaction was stopped by the addition of 400 μl […] (DEAE)-52 cellulose (Sephadex) pre-equilibrated in 15 mM Tris-HCl (pH 7.5), 1 mM ethylenediamine tetra-acetic acid and 0.02% NaN3 (1:1 volume/volume). The mixture was agitated for 4 minutes and centrifuged for 2 minutes at maximum speed in an Eppendorf centrifuge (4° C.) to pellet the DEAE-52-bound donor vesicles. An aliquot of the supernatant containing the acceptor liposomes was counted and the [^14C]-counts were used to calculate the percent triglyceride transfer from donor to acceptor vesicles.
Representative compounds of the present invention were measured for binding against the MTP receptor, as described above, with results as listed in Table 2 below.

rat Y2 receptor = target: T4, rat Y2 receptor (Rattus norvegicus, UniProt Q9ERC0); assay: Neuropeptide Y2 radioligand binding assay, [125I]PYY, rat hippocampus membranes; conditions: read-out: rY2 pKi (converted)
T4 construct: membranes from rat or mouse hippocampus were prepared; from tissue; host or cells: rat hippocampus membranes
T4 sequence (Q9ERC0 1-381): T3 sequence (Q9ERC0 1-381)
Protocol: as §1, §2, §3

mouse Y2 receptor = target: T5, mouse Y2 receptor (Mus musculus, UniProt P97295); assay: Neuropeptide Y2 radioligand binding assay, [125I]PYY, mouse hippocampus membranes; conditions: read-out: mY2 pKi (converted)
T5 construct: membranes from rat or mouse hippocampus were prepared; from tissue; host or cells: mouse hippocampus membranes
T5 sequence (P97295 1-381): T3 sequence (Q9ERC0 1-381) with L4V, L20P, S23P, P25H, V52I, Q163R, V175I, K247R, T266M, L371P
Protocol: as §1, §2, §3

Row | Ki (human Y2 receptor) | Kb (hY2) | receptor occupancy at 10 mg/kg ([1]; rat, read-out: Y2 receptor occupancy in rat brain) | IC50 (MTP) | Ki (rat Y2 receptor) | Ki (mouse Y2 receptor) | SMILES | Y2 receptor occupancy in rat brain [1]
1 | 32.4 nM | 50.1 nM | ~40% | 251 nM | – | – | CCNC(=O)C(c1ccccc1)N1CCN(c2ccc(NC(=O)c3ccccc3-c3cccnc3)cc2F)CC1 (racemic) [Cmpd (B), N-{4-[4-(ethylcarbamoyl-phenyl-methyl)-piperazin-1-yl]-3-fluorophenyl}-2-pyridin-3-yl-benzamide] | –
2 | 7.94 nM | 0.398 nM | – | 316 nM | 10 nM | – | CCN(CC)C(=O)C(c1ccccc1)N1CCN(c2ccc(NC(=O)c3ccccc3-c3cccnc3)cc2F)CC1 (single isomer, unassigned; (+)) [(+)-Cmpd (A), N-{4-[4-(Diethylcarbamoyl-phenyl-methyl)-piperazin-1-yl]-3-fluoro-phenyl}-2-pyridin-3-yl-benzamide] | –
3 | 229 nM | – | – | 3980 nM | – | – | CCNC(=O)C(c1ccccc1)N1CCN(c2ccc(NC(=O)c3ccccc3-c3cccnc3)cc2F)CC1 (single isomer, unassigned; (+)) [(+)-Cmpd (B), N-{4-[4-(ethylcarbamoyl-phenyl-methyl)-piperazin-1-yl]-3-fluoro-phenyl}-2-pyridin-3-yl-benzamide] | –
4 | 3.16 nM | 0.794 nM | – | 6310 nM | 12 nM | 7.94 nM | CCN(CC)C(=O)C(c1ccccc1)N1CCN(c2ccc(NC(=O)c3ccccc3-c3cccnc3)cc2F)CC1 (single isomer, unassigned; (-)) [(−)-Cmpd (A), (−)-N-{4-[4-(Diethylcarbamoyl-phenyl-methyl)-piperazin-1-yl]-3-fluoro-phenyl}-2-pyridin-3-yl-benzamide] | –
5 | 39.8 nM | – | – | 398 nM | – | – | CCNC(=O)C(c1ccccc1)N1CCN(c2ccc(NC(=O)c3ccccc3-c3cccnc3)cc2F)CC1 (single isomer, unassigned; (-)) [(−)-Cmpd (B), N-{4-[4-(ethylcarbamoyl-phenyl-methyl)-piperazin-1-yl]-3-fluoro-phenyl}-2-pyridin-3-yl-benzamide] | –
6 | 7.59 nM | 6.31 nM | – | 50.1 nM | 25.1 nM | – | CCN(CC)C(=O)C(c1ccccc1)N1CCN(c2ccc(NC(=O)c3ccccc3-c3ccccc3)cc2F)CC1 (stereo not shown) [Cmpd (C), Biphenyl-2-carboxylic acid {4-[4-(diethylcarbamoyl-phenyl-methyl)-piperazin-1-yl]-3-fluoro-phenyl}-amide] | did not show any significant level of Y2 receptor occupancy
